One assay has as its system DD2. Further details: method as in downloaded from ChEMBL. To be noted: ref downloaded from ChEMBL; cited from earlier work.
The target of assay [1] is T1, Plasmodium falciparum calcium-dependent protein kinase 1 (CDPK1) (Plasmodium falciparum, UniProt P62344).
T1 construct: 6-Histidine (N); made in house
Kind of assay: CDPK1 Kinase-Glo ATP-consumption screen and dose-response. The assay is classed as biochemical. The conditions noted are these: hits below 1 uM; read-out: CDPK1 IC50. The essentials: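 ATP consumption by recombinant P. falciparum CDPK4 or CDPK1 measured as residual ATP by Kinase-Glo luminescence, with 40 μM Syntide-2 substrate and 90 min incubation stopped with 5 mM EGTA. Single-point screen at 1 μM final, followed by dose-response; no-substrate wells as negative control.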

The test system of the next assay is HepG2 cells. The conditions noted are these: HEPG2; ref downloaded from ChEMBL; cited from earlier work.
A further assay relates to P. falciparum 3D7 cells. To be noted: 3D7; ref downloaded from ChEMBL; cited from earlier work.
A further assay concerns 3D7 PFLDH. Further details: method as in downloaded from ChEMBL. To be noted: ref downloaded from ChEMBL; cited from earlier work.

T1 sequence (P62344 whole entry): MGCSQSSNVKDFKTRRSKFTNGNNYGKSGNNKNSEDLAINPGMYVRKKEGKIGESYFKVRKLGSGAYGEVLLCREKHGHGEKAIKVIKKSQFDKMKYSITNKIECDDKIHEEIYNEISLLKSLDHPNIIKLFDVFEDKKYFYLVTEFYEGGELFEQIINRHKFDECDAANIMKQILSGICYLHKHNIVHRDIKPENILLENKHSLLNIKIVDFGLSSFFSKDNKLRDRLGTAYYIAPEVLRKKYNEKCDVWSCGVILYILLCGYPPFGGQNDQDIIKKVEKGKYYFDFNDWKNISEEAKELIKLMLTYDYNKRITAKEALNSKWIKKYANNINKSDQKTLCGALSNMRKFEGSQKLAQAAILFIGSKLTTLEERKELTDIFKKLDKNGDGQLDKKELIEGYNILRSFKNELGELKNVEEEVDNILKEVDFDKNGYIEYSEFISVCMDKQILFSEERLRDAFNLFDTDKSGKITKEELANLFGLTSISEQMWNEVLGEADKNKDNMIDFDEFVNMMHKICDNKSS

Take `COc1cc2nccc(Nc3ccc(Oc4ccccc4)cc3)c2cc1OC.Cl` [TCMDC-131917]: the PCT_INHB_DD2 with DD2 was 99. In addition, the IC50 (as a rule, the point on the concentration scale where inhibition reaches its midpoint) in assay [1] amounted to 0.145 µM. Besides, in the assay with HepG2 cells, the PCT_INHIB_HEPG2 is listed as 13. In the assay with P. falciparum 3D7 cells, the PCT_IHB_3D7 was 100 and the pXC50_3D7 is reported as 6.165. For the same compound, the PCT_INHIB_3D7_PFLDH with 3D7 PFLDH is recorded as 0.
Take `COc1ccc(-c2cnc3ccc(N4CCCC4)nn23)cc1OC.O=CO` [TCMDC-134177]: the PCT_INHB_DD2 in the assay on DD2 is given as 98. Besides, the IC50 in assay [1] was determined as 0.31 µM. The PCT_INHIB_HEPG2 in the assay with HepG2 cells is given as 40. In the assay with P. falciparum 3D7 cells, the PCT_IHB_3D7 is reported as 98 and the pXC50_3D7 is 6.113. In the assay on 3D7 PFLDH, the PCT_INHIB_3D7_PFLDH is reported as 0.
For `COc1ccc(-c2cnn3ccc(Nc4cc(OC)c(OC)c(OC)c4)nc23)cc1OC` [TCMDC-134383], the PCT_INHB_DD2 in the assay with DD2 was 100. In assay [1], the IC50 was 0.157 µM. Further, the PCT_INHIB_HEPG2 in the assay with HepG2 cells is on record as 57. Also, in the assay with P. falciparum 3D7 cells, the PCT_IHB_3D7 is 98 and the pXC50_3D7 is reported as 6.187. Also, the PCT_INHIB_3D7_PFLDH in the assay on 3D7 PFLDH is 0.
With `COc1ccc(Nc2ncc3c(-c4cccc(NC(=O)Cc5cccc(O)c5)c4)c[nH]c3n2)cc1OC` [TCMDC-135247], the PCT_INHB_DD2 in the assay with DD2 was 96. For the same compound, in assay [1], the IC50 was 0.312 µM. For the same compound, the PCT_INHIB_HEPG2 in the assay on HepG2 cells is on record as 44. In the assay with P. falciparum 3D7 cells, the PCT_IHB_3D7 is recorded as 100 and the pXC50_3D7 is recorded as 6.156. Moreover, the PCT_INHIB_3D7_PFLDH with 3D7 PFLDH was 0.
For `COc1ccc(-c2cnc3[nH]cc(-c4ccncc4)c3c2)cc1OC` [TCMDC-135853], in the assay with DD2, the PCT_INHB_DD2 is 97. Further, the IC50 in assay [1] is 0.39 µM. In addition, the PCT_INHIB_HEPG2 with HepG2 cells is recorded as 52. For the same compound, in the assay with P. falciparum 3D7 cells, the PCT_IHB_3D7 is listed as 98 and the pXC50_3D7 is recorded as 6.899. In addition, in the assay with 3D7 PFLDH, the PCT_INHIB_3D7_PFLDH is recorded as 0.
As to `CS(=O)(=O)Nc1cccc(-c2cnc3[nH]cc(-c4ccc(CN)cc4)c3c2)c1` [TCMDC-136218], the PCT_INHB_DD2 with DD2 was 95. In assay [1], the IC50 was found to be 0.552 µM. The PCT_INHIB_HEPG2 with HepG2 cells is listed as 27. For the same compound, in the assay with P. falciparum 3D7 cells, the PCT_IHB_3D7 is on record as 98 and the pXC50_3D7 was 6.0063. For the same compound, the PCT_INHIB_3D7_PFLDH in the assay on 3D7 PFLDH is 2.
Regarding `CS(=O)(=O)Nc1cccc(-c2cnc3[nH]cc(-c4cccc(CN)c4)c3c2)c1` [TCMDC-136219], in the assay on DD2, the PCT_INHB_DD2 is 82. Further, the IC50 in assay [1] was determined as 0.387 µM. Besides, the PCT_INHIB_HEPG2 in the assay with HepG2 cells is 25. Also, in the assay with P. falciparum 3D7 cells, the PCT_IHB_3D7 is given as 96 and the pXC50_3D7 was 5.779. In addition, the PCT_INHIB_3D7_PFLDH in the assay on 3D7 PFLDH is 0.
As for `CS(=O)(=O)c1cccc(-c2cnc3[nH]cc(-c4cccc(CCN)c4)c3c2)c1.O=C(O)C(F)(F)F` [TCMDC-136307], the PCT_INHB_DD2 in the assay with DD2 is given as 74. For the same compound, in assay [1], the IC50 is 0.044 µM. Besides, in the assay with HepG2 cells, the PCT_INHIB_HEPG2 was 0. Moreover, in the assay on P. falciparum 3D7 cells, the PCT_IHB_3D7 was 99 and the pXC50_3D7 is 5.808. The PCT_INHIB_3D7_PFLDH in the assay on 3D7 PFLDH was 0.
In the case of `Oc1cccc(-c2cnc3ccc(NCc4ccc(F)cc4)nn23)c1` [TCMDC-136676], the PCT_INHB_DD2 in the assay with DD2 is reported as 66. Besides, in assay [1], the IC50 turned out to be 0.115 µM. Besides, in the assay with HepG2 cells, the PCT_INHIB_HEPG2 was 0. Moreover, in the assay with P. falciparum 3D7 cells, the PCT_IHB_3D7 is 91 and the pXC50_3D7 is 5.965. For the same compound, the PCT_INHIB_3D7_PFLDH in the assay on 3D7 PFLDH was 2.
Regarding `N#Cc1ccc(-c2cnc3ccc(NCCc4cccnc4)nn23)cc1` [TCMDC-136679], the PCT_INHB_DD2 with DD2 was 81. The IC50 in assay [1] was determined as 0.246 µM. For the same compound, the PCT_INHIB_HEPG2 in the assay with HepG2 cells was 27. Further, in the assay with P. falciparum 3D7 cells, the PCT_IHB_3D7 is recorded as 99 and the pXC50_3D7 was 6.593. Further, the PCT_INHIB_3D7_PFLDH in the assay on 3D7 PFLDH is 6.
With `Clc1ccc(-c2cnc3ccc(NCCc4cccnc4)nn23)cc1` [TCMDC-136680], the PCT_INHB_DD2 in the assay with DD2 is reported as 32. Also, the IC50 in assay [1] worked out at 0.371 µM. Besides, the PCT_INHIB_HEPG2 with HepG2 cells is recorded as 34. Besides, in the assay on P. falciparum 3D7 cells, the PCT_IHB_3D7 is recorded as 97 and the pXC50_3D7 is given as 6.067. Moreover, the PCT_INHIB_3D7_PFLDH with 3D7 PFLDH is recorded as 0.
For `Cl.Oc1cccc(Nc2ccnc3cc(-c4nccs4)ccc23)c1` [TCMDC-138297], the IC50 in assay [1] was determined as 0.997 µM. The PCT_INHIB_HEPG2 with HepG2 cells was 0. In the assay with P. falciparum 3D7 cells, the PCT_IHB_3D7 is reported as 98. Besides, in the assay on 3D7 PFLDH, the PCT_INHIB_3D7_PFLDH is 0.
